# Laboratory results from patent US6096314A, “Peptides and pharmaceutical compositions comprising them” (Yeda Research and Development Co. Ltd., priority 1994, dated 2000).
# Experiments:
# anti-idiotypic T cells = assay: Treatment with p277 in IFA, proliferation of spleen cells to C9VDJ peptide (FIG. 9); assay type: in vivo; conditions: NOD female mice, 12 weeks old, treated in IFA subcutaneously; 2 or 5 weeks after treatment
# Description: FIGS. 4A and B Spontaneous anti-idiotypic responses in naive female (FIG. 4A) and male (FIG. 4B) NOD mice. T cell responses to hsp60 (idiotype) and to the C9 clone (anti-idiotype) were measured in naive female and male NOD mice. Ten female and 10 male NOD mice were sacrificed at 4, 6, 8, 10, 13 and 21 week of age and their spleens were taken for a T cell proliferative assay. Spleen cells were tested at 200,000 cells/0.2 cc in microtiter wells for proliferative responses to either human hsp60 (5 μg/ml) or the C9 clone (20,000 cells/well irradiated at 5000 rad). The a proliferative response was measured by adding 3H-thymidine to the culture for the last 16 h of a 72 h stimulation. The incorporated 3H-thymidine was measured on a β-counter and the stimulation index (SI) was calculated as cpm incorporation in the presence of antigen/cpm incorporation in the absence of antigen. Individual mice were tested separately and the mean±SD for each time point was calculated.
# NOD female mice, 12 weeks old, were immunized with p277 or p278 in IFA, […] per mouse subcutaneously, or left untreated 10 mice per group. At 2 or 5 weeks after treatment 5 mice of each group were sacrificed their spleens removed and tested individually in a proliferation assay to C9VDJ peptide 5 μg/ml, as described in FIG. 4.
# NOD mice = conditions: references (3), (4); cited from earlier work
sequence,measurement,setting,value
VLGGGCALLRCIPALDSLTPANED [p277],Anti-C9 response (proliferation to C9VDJ peptide 5 μg/ml),anti-idiotypic T cells,induces anti-C9 response
same,Effect of vaccination on diabetes,NOD mice,prevent (3) or even reverse diabetes
